According to patent US20240400577A1, “MODULATORS OF PROTEIN KINASES” (VIBLIOME THERAPEUTICS, LLC, priority 2021, published 2024):
pIC50: −log10 of the molar value.

Assays:
Assay in all cases: Kinase panel enzymatic inhibition assay (Nanosyn)
Assay type in all cases: biochemical
PLK1 = biological target: T1, PLK1 (Homo sapiens, UniProt P53350); conditions: ATP at Km; 30-minute pre-incubation; read-out: kinase inhibition in terms of IC50, PLK1
T1 construct: Nanosyn (contract laboratory that ran the panel)
In short: (§1)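 Inhibition is expressed as percent at 5 μM or as IC50, with ATP set at the Km of each kinase and a 30-minute compound pre-incubation. Detection used an accepted enzymatic format such as Caliper mobility shift.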

MER = biological target: T2, MER (Homo sapiens, UniProt Q12866); conditions: ATP at Km; 30-minute pre-incubation; read-out: kinase inhibition in terms of IC50, MER
T2 construct: Nanosyn (contract laboratory that ran the panel)
T2 sequence (Q12866 21-999): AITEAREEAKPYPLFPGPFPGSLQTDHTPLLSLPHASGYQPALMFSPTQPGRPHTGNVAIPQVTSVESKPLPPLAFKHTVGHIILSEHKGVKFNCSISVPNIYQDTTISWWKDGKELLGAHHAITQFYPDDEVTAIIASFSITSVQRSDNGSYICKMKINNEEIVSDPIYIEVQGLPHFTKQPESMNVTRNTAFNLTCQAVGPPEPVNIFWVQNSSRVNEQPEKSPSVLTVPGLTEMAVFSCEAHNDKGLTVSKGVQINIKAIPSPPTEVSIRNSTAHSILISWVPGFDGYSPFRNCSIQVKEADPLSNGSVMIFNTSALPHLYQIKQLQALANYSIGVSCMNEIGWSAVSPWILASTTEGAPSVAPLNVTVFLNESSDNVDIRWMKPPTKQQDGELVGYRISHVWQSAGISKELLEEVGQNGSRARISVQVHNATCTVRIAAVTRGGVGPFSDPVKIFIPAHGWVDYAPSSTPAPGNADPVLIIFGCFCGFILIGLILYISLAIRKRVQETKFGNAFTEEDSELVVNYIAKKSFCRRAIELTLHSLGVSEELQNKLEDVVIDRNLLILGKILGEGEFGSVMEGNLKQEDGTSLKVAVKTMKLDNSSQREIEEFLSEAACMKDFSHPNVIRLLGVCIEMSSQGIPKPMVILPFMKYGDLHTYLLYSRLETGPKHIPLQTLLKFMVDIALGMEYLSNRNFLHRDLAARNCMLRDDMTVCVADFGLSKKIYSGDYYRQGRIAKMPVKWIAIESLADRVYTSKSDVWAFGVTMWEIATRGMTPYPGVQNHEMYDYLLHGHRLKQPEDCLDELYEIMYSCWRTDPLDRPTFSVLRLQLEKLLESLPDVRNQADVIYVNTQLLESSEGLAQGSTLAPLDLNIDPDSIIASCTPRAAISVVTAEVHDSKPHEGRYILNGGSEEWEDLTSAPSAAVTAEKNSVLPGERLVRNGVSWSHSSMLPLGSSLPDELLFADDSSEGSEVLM
In short: as §1

PLK4 = biological target: T3, PLK4 (Homo sapiens, UniProt O00444); conditions: ATP at Km; 30-minute pre-incubation; read-out: kinase inhibition in terms of IC50, PLK4
T3 construct: Nanosyn (contract laboratory that ran the panel)
T3 sequence (O00444 1-970): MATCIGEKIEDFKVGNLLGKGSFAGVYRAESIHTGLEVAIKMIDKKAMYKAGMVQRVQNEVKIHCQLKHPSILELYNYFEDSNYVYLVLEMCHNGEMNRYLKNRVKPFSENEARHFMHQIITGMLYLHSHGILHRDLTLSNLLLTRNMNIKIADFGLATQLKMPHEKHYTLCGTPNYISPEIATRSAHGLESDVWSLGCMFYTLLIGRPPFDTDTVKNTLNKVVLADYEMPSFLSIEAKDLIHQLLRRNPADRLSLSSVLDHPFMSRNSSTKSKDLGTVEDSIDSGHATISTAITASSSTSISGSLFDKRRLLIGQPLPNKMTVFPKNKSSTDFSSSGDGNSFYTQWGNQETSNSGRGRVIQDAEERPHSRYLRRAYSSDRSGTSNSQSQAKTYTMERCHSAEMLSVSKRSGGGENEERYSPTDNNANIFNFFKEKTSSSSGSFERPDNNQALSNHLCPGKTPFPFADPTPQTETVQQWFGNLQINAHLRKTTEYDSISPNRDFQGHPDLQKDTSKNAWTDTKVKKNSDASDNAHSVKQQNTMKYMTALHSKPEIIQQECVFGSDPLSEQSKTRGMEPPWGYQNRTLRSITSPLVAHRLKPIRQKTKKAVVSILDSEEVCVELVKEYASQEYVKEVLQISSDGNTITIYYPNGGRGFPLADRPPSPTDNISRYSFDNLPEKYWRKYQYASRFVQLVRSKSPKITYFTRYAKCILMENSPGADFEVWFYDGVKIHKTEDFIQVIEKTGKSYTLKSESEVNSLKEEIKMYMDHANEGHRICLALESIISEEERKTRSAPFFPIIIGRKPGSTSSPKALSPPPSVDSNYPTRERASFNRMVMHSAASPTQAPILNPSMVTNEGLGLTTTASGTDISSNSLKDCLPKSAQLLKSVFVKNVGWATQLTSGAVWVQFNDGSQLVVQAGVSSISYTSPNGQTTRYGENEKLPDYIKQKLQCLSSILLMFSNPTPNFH
In short: as §1

T1 sequence (P53350 whole entry): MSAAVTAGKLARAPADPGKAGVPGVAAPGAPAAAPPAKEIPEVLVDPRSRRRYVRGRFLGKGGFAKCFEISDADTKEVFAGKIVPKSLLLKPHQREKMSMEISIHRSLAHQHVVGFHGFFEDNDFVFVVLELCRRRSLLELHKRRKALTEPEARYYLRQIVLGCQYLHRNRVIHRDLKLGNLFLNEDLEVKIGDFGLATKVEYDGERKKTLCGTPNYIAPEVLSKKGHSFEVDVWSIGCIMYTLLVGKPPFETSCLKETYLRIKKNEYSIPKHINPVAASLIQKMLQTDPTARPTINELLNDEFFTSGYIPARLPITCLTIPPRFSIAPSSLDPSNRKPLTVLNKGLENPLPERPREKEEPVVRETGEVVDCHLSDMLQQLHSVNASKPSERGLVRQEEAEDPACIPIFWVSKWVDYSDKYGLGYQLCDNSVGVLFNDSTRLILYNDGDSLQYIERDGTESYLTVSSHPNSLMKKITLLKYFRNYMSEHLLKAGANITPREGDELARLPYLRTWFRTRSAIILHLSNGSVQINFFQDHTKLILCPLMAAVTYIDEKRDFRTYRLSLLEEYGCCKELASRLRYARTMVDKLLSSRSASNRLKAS

Row | SMILES | pIC50 (PLK1) | pIC50 (MER) | pIC50 (PLK4)
1 | COc1cc2nccc(Oc3ccc(NC(=O)c4cc(S(C)(=O)=O)n(-c5ccc(F)cc5)n4)c(F)c3)c2cc1OC [Ex71, N-(4-((6,7-dimethoxyquinolin-4-yl)oxy)-2-fluorophenyl)-1-(4-fluorophenyl)-5-(methylsulfonyl)-1H-pyrazole-3-carboxamide] | ≤ 5.00 | > 6.30 | 5.00 to 6.00
2 | COc1cc2nccc(Oc3ccc(NC(=O)c4cc(S(C)(=O)=O)n(-c5ccc(F)cc5)n4)cc3)c2cc1OC [Ex72, N-(4-((6,7-dimethoxyquinolin-4-yl)oxy)phenyl)-1-(4-fluorophenyl)-5-(methylsulfonyl)-1H-pyrazole-3-carboxamide] | ≤ 5.00 | 6.00 to 6.30 | 6.00 to 6.30
3 | COc1cc2nccc(Oc3ccc(NC(=O)c4cc(S(C)(=O)=O)n(-c5ccc(F)cc5)n4)cc3F)c2cc1OC [Ex73, N-(4-((6,7-dimethoxyquinolin-4-yl)oxy)-3-fluorophenyl)-1-(4-fluorophenyl)-5-(methylsulfonyl)-1H-pyrazole-3-carboxamide] | ≤ 5.00 | > 6.30 | > 6.30
